Measured values as given in patent US20200323849A1, “COMBINATIONS OF HISTONE DEACETYLASE INHIBITORS AND IMMUNOMODULATORY DRUGS” (Acetylon Pharmaceuticals, Inc., priority 2013, published 2020).

Columns and labels:
[1] = tested on: acetylated tubulin (a marker of HDAC6 inhibition); test: Phase 1b PD: acetylated tubulin in PBMC; format: in vivo, human; details: at ≥80 mg Compound A
Experimental: (§4) In Part A of the trial, patients were treated with escalating doses of oral Compound A in combination with a standard dose and schedule of lenalidomide and dexamethasone on days 1-5 and 8-12 of a 28 day cycle. For example, the patients in cohort 1 received 40 mg of Compound A, 15 mg of Compound E, and 40 mg of dexamethasone per day; the patients in cohort 2 received 40 mg of Compound A, 25 mg of Compound E, and 40 mg of dexamethasone per day; the patients in cohort 3 received 80 mg of Compound A, 25 mg of Compound E, and 40 mg of dexamethasone per day; the patients in cohort 4 received 160 mg of Compound A, 25 mg of Compound E, and 40 mg of dexamethasone per day; and the patients in cohort 5 received 240 mg of Compound A, 25 mg of Compound E, and 40 mg of dexamethasone per day. […] For example, the patients in cohort 6 received 160 mg of Compound A, 25 mg of Compound E, and 40 mg of dexamethasone per day; the patients in cohort 7 received 160 mg of Compound A, 25 mg of Compound E, and 40 mg of dexamethasone twice daily; and the patients in cohort 8 received 240 mg of Compound A, 25 mg of Compound E, and 40 mg of dexamethasone twice daily. Peripheral blood samples were obtained for PK and PD analysis at specified time points.

[2] = tested on: H929 myeloma cells; test: Apoptosis by flow cytometry, Annexin V / propidium iodide (H929); format: cell-based; details: H929, 5 and 7 days; Compound A 2 μM, Lenalidomide 2 μM, Pomalidomide 1 μM
Experimental: (§1) H929 (FIGS. 11A & 11B) or MM.1s (FIGS. 11C & 11D) myeloma cells were exposed to drug for 5 (FIGS. 11A & 11C) and 7 (FIGS. 11B & 11D) days, and apoptosis was assessed by flow cytometry by measuring Annexin V binding and cellular permeability to propidium iodide. The relative fraction of cells that were live, in early apoptosis, in late apoptosis, or dead was then determined.

[3] = tested on: MM.1s myeloma cells; test: Apoptosis by flow cytometry, Annexin V / propidium iodide (MM.1s); format: cell-based; details: 5 and 7 days, Compound A 2 μM, Lenalidomide 2 μM, Pomalidomide 1 μM
Experimental: as §1

[4] = tested on: H929 myeloma cells; test: Cell cycle distribution by flow cytometry, propidium iodide (H929); format: cell-based; details: H929, 3 and 5 days; Compound A 2 μM, Lenalidomide 2 μM, Pomalidomide 1 μM
Experimental: (§2) H929 (FIGS. 10A & 10B) or MM.1s (FIGS. 10C & 10D) myeloma cells were exposed to drug for 3 (FIGS. 10A & 10C) and 5 (FIGS. 10B & 10D) days and cell cycle distribution was assessed by flow cytometry via incorporation of propidium iodide. The relative fraction of cells in each stage of the cell cycle (GO/G1, S, and G2/M) as well as the fraction of dead cells (Sub G1) was then estimated.

[5] = Phase 1b clinical trial: PK in peripheral blood samples
Experimental: as §4

[6] = human, in vivo
Experimental: as §4

[7] = Compound A monotherapy clinical trial (phase 1a)
Experimental: as §4

[8] = tested on: acetylated histones (a marker of class 1 HDAC inhibition); test: Phase 1b PD: acetylated histones in PBMC; format: in vivo, human; details: at ≥80 mg Compound A
Experimental: as §4

[9] = tested on: MM.1s myeloma cells; test: Cell cycle distribution by flow cytometry, propidium iodide (MM.1s); format: cell-based; details: 3 and 5 days, Compound A 2 μM, Lenalidomide 2 μM, Pomalidomide 1 μM
Experimental: as §2

[10] = tested on: H929 cells; test: Immunoblot in H929 cells; format: cell-based
[11] = tested on: HDAC1, 2, and 3; test: HDAC enzyme assays (HDAC1, 2, 3); format: biochemical
Experimental: (§3) Compounds for testing were diluted in DMSO to 50 fold the final concentration and a ten point three fold dilution series was made. The compounds were diluted in assay buffer (50 mM HEPES, pH 7.4, 100 mM KCl, 0.001% Tween-20, 0.05% BSA, 20 μM TCEP) to 6 fold their final concentration. The HDAC enzymes (purchased from BPS Biosciences) were diluted to 1.5 fold their final concentration in assay buffer. The tripeptide substrate and trypsin at 0.05 μM final concentration were diluted in assay buffer at 6 fold their final concentration. The final enzyme concentrations used in these assays were 3.3 ng/ml (HDAC1), 0.2 ng/ml (HDAC2), 0.08 ng/ml (HDAC3) and 2 ng/ml (HDAC6). The final substrate concentrations used were 16 μM (HDAC1), 10 μM (HDAC2), 17 μM (HDAC3) and 14 μM (HDAC6). Five μl of compound and 20 μl of enzyme were added to wells of a black, opaque 384 well plate in duplicate. Enzyme and compound were incubated together at room temperature for 10 minutes. Five μl of substrate was added to each well, the plate was shaken for 60 seconds and placed into a Victor 2 microtiter plate reader. The development of fluorescence was monitored for 60 min and the linear rate of the reaction was calculated. The IC50 was determined using Graph Pad Prism by a four parameter curve fit.

[12] = target: T1, HDAC6 (Homo sapiens, UniProt Q9UBN7); test: HDAC enzyme assays (HDAC6 selectivity); format: biochemical
T1 construct: purchased BPS Biosciences
T1 sequence (Q9UBN7 1-1215): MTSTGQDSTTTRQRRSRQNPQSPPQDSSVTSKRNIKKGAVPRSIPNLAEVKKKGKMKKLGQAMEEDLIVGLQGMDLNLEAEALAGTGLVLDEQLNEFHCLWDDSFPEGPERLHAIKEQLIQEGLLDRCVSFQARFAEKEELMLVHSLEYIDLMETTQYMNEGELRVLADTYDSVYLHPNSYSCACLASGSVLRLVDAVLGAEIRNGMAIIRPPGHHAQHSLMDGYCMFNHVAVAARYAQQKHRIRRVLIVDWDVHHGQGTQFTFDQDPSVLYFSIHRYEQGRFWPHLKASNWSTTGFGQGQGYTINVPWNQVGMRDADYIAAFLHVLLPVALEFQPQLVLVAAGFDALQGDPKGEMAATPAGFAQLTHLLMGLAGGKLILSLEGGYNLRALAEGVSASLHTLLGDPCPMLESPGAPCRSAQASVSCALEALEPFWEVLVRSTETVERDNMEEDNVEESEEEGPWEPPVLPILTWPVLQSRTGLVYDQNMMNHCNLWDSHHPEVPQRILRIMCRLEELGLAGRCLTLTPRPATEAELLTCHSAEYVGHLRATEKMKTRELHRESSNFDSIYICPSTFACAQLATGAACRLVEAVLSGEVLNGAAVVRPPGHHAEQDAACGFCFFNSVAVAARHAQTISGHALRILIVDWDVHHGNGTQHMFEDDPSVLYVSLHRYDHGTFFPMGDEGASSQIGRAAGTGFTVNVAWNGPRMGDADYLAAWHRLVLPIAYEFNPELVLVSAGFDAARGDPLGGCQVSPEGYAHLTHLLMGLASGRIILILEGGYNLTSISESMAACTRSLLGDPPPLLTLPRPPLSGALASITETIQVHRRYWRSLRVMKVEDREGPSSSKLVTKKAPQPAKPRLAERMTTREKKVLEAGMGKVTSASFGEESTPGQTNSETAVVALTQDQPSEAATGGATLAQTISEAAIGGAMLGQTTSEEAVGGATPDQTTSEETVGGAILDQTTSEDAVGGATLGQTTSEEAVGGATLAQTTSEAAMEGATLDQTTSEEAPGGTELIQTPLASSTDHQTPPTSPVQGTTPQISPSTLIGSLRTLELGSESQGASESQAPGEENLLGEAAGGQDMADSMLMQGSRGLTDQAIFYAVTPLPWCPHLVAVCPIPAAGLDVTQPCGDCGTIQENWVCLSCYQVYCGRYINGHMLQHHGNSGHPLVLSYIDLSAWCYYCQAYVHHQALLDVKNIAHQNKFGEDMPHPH
Experimental: as §3, with “Five μl of compound and 20 μl of enzyme were added to wells of a black, opaque 384 well plate in duplicate.” left out

Structure (SMILES): O=C(CCCCCCNC(=O)c1cnc(N(c2ccccc2)c2ccccc2)nc1)NO [Compound A, 2-(diphenylamino)-N-(7-(hydroxyamino)-7-oxoheptyl) pyrimidine-5-carboxamide]
- increase in acetylated tubulin [1]: > 2 ×
- percentage of apoptotic cells [2]: small increase in apoptosis
- percentage of apoptotic cells [3]: small increase in apoptosis
- cell cycle distribution (G0/G1, S, G2/M) [4]: small reduction
- Maximal levels of Compound A ([5]; at ≥80 mg, coadministered with lenalidomide and dexamethasone): ≥ 1 µM
- PK for Compound A versus analogous dose levels in phase 1a monotherapy ([5]; coadministration of lenalidomide): similar
- dose limiting toxicities (DLTs) [6]: not observed
- dose well-tolerated as a monotherapy (maximum dose examined) [7]: up to 360 mg/day
- increase in acetylated histones [8]: minimal increase
- cell cycle distribution (G0/G1, S, G2/M) [9]: small reduction
- acetylation of α-tubulin (inhibition of HDAC6) [10]: hyperacetylation

Structure (SMILES): O=C(CCCCCCNC(=O)c1cnc(N(c2ccccc2)c2ccccc2Cl)nc1)NO [Compound B, 2-((2-chlorophenyl)(phenyl)amino)-N-(7-(hydroxyamino)-7-oxoheptyl)pyrimidine-5-carboxamide]
- inhibition of HDAC1, 2, and 3 [11]: low level inhibition

Structure (SMILES): O=C(NO)c1cnc(NC2(c3cccc(F)c3)CCCCC2)nc1 [Compound C, 2-((1-(3-fluorophenyl)cyclohexyl)amino)-N-hydroxypyrimidine-5-carboxamide]
- selective for HDAC6 over class I HDAC's [12]: more than 300 fold
